Laboratory results reported in US20200171005A9, “Heterobifunctional Pan-Selectin Antagonists Having a Triazole Linker” (GlycoMimetics, Inc., priority 2015, published 2020).

Tests used:
[1] = biological target: T1, P-selectin (P-selectin/IgG) (Homo sapiens, UniProt P16109); test: Cell-free P-selectin ligand competitive binding assay (sLe^a-PAA); conditions: P-selectin/IgG coated plate, sLe^a-PAA streptavidin-POD complex, 25° C., 2 hours; read-out: IC50, Binding Affinity to P-Selectin Determined by Competitive Binding Assay
T1 sequence (P16109 42-771): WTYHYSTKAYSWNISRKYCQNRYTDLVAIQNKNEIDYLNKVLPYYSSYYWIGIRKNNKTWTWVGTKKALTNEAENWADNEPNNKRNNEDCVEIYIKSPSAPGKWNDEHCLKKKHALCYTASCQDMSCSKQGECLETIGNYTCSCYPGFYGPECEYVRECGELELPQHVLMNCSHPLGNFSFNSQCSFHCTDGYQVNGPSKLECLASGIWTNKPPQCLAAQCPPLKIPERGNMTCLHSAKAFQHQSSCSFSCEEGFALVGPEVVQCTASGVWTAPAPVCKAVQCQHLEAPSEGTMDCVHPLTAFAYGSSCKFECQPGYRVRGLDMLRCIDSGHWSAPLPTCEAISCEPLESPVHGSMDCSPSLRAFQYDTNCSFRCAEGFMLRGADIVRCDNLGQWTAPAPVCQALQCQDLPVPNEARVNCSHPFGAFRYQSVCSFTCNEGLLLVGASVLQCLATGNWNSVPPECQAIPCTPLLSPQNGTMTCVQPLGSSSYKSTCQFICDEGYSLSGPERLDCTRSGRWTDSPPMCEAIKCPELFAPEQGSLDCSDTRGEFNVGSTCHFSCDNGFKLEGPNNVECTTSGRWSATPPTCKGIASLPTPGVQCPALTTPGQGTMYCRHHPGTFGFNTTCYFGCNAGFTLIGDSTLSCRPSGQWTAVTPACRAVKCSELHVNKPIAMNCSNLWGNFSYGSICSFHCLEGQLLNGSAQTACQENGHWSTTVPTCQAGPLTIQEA
Method: The cell-free P-selectin ligand binding assay was adapted from Weitz-Schmidt et al (G. Weitz-Schmidt, D. Stokmaier, G. Scheel, N. E. Nifant'ev, A. B. Tuzikov, N. V. Bovin, Anal Biochem 1996, 238, 184-190). A MaxiSorp 96-well flat bottom microtiter plate purchased from Nalge Nunc International (Penfield, N.Y., USA) was coated with P-selectin/IgG by incubation with 100 μL/well of the purified protein at a concentration of 3 μg/ml in 10 mM HEPES-NaOH pH 7.4, 150 mM NaCl, 1 mM CaCl2 (HAB-Ca^+). After an overnight incubation at 4° C., the plate was washed three times with HAB-Ca^+ followed by a 2 hour incubation with 200 μL/well of a solution of 3% BSA in HAB-Ca^+ at room temperature to block nonspecific binding. During this incubation, inhibitory test compounds, diluted in HAB-Ca^+, were titrated by a twofold serial and mixed with an equal volume of 0.2 μg/ml of a preformed complex of a biotinylated sialyl Lewis' polyacrylamide polymer (sLe^a-PAA) purchased form GlycoTech Inc. (Gaithsburg, Md., USA) and horseradish peroxidase-labeled streptavidin (streptavidin-POD) purchased from Roche (Rotkreuz, Switzerland). After blocking, the microtiter plate was washed three times with HAB-Ca^+ and 100 μL/well of the inhibitor dilution series premixed with sLe^a-PAA streptavidin-POD complex was transferred to the different wells of the plate. The binding reaction was allowed to proceed at 25° C. After 2 hours, the plate was washed twice with HAB-Ca^+, and 100 μL/well of ABTS (2,2′-azino-bis[3-ethylbenzthiazoline-6-sulfonic acid]) substrate reagent purchased from Invitrogen (Paisley, UK) was added to each well. Adding 100 μL/well of 2% oxalic acid stopped the colorimetric reaction was after 5 minutes. The optical density was determined at […] (SpectraMax). The concentration of antagonist required to inhibit binding by 50% was determined and is reported as the IC50 value.

[2] = biological target: T2, E-selectin (E-selectinLEC2 construct) (Homo sapiens, UniProt P16581); test: Microscale Thermophoresis (MST) affinity assay for E-selectin; conditions: labeled E-selectinLEC2, HEPES buffer pH 7.4, 1 mM CaCl2, 25° C.; read-out: Binding Affinity (KD) to E-Selectin Determined by MST
T2 construct: a construct consisting of the lectin domain, the EGF like domain, and the first two short consensus repeats (E-selectinLEC2)
T2 sequence (P16581 22-301 limits assumed): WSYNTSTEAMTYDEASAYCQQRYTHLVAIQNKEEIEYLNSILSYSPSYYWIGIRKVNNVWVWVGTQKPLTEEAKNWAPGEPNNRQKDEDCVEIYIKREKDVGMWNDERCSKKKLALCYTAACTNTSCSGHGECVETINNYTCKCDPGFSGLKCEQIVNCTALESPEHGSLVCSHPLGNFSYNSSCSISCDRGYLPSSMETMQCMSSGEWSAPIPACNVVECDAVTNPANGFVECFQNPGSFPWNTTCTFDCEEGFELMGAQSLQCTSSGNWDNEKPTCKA
Method: For E-selectin, a construct consisting of the lectin domain, the EGF like domain, and the first two short consensus repeats (E-selectinLEC2) was labeled using the amine reactive protein labeling kit BLUE-NHS from NanoTemper Technologies GmbH (Munich, Germany).
The Microscale Thermophoresis (MST) experiments were carried out in a HEPES buffer adjusted to pH 7.4 containing 150 mM NaCl, 1 mM CaCl2 and 0.05% Tween 20 at a temperature of 25° C. with 50% LED power, 50% laser power, laser on time of 30 seconds, and laser off time of 5 seconds with standard treated capillaries. A fixed concentration of the labeled E-selectinLEC2 protein was incubated for 20 minutes with a 15-datapoint […] 1:1 dilution of ligand starting about 30 times above the expected KD. The observed data points were fitted using the single-site binding function of Alan Cooper, Tutorial Chemistry Texts, Vol 16: Biophysical Chemistry; Royal Society of Chemistry: Cambridge, 2004.

Structure (SMILES)	IC50 [1] [µM]	Kd [2] [µM]
CCC1CC(C(=O)NCCCc2cn(CCCC(=O)Nc3cc(S(=O)(=O)O)cc4cc(S(=O)(=O)O)cc(S(=O)(=O)O)c34)nn2)CC(OC2OC(CO)C(O)C(OC(CC3CCCCC3)C(=O)O)C2OC(=O)c2ccccc2)C1OC1OC(C)C(O)C(O)C1O (centres unmarked) [Compound 15b]	82	0.97
CCC1CC(C(=O)NCCCc2cn(CCC(=O)Nc3cc(S(=O)(=O)O)cc4cc(S(=O)(=O)O)cc(S(=O)(=O)O)c34)nn2)CC(OC2OC(CO)C(O)C(OC(CC3CCCCC3)C(=O)O)C2OC(=O)c2ccccc2)C1OC1OC(C)C(O)C(O)C1O (centres unmarked) [Compound 15a]	94	1.5
CC1CC(C(=O)NCCCc2cn(CCC(=O)Nc3cc(S(=O)(=O)O)cc4cc(S(=O)(=O)O)cc(S(=O)(=O)O)c34)nn2)CC(OC2OC(CO)C(O)C(OC(CC3CCCCC3)C(=O)O)C2OC(=O)c2ccccc2)C1OC1OC(C)C(O)C(O)C1O (centres unmarked) [Compound 17]	185	3
CCC1CC(C(=O)NCCCc2cn(CCCCC(=O)Nc3cc(S(=O)(=O)O)cc4cc(S(=O)(=O)O)cc(S(=O)(=O)O)c34)nn2)CC(OC2OC(CO)C(O)C(OC(CC3CCCCC3)C(=O)O)C2OC(=O)c2ccccc2)C1OC1OC(C)C(O)C(O)C1O (centres unmarked) [Compound 15c]	210	1.2
